# Measurements from PubChem BioAssay (NCI).
# “And” between values parts separate entries of the source, which are not always exact repeats. Equal values may be shown once.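 In this assay, cells in 96-well plates receive the compound at five concentrations for 48 hours. Endpoints are linearly interpolated between the surrounding concentrations. The concentration for 50% growth inhibition is given as GI50. TGI: total growth inhibition.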
# Legend:
# Assay in all cases: inhibition of tumour cell growth, NCI panel, 48 h
# SF-268 CNS = test system: SF-268 CNS
# SNB-19 CNS = test system: SNB-19 CNS
# SK-OV-3 ovarian = test system: SK-OV-3 ovarian
# RXF 393 renal = test system: RXF 393 renal
# UACC-257 melanoma = test system: UACC-257 melanoma
# SW-620 colon = test system: SW-620 colon
# CCRF-CEM leukemia = test system: CCRF-CEM leukemia
# SNB-75 CNS = test system: SNB-75 CNS
# OVCAR-4 ovarian = test system: OVCAR-4 ovarian
# NCI-H460 lung = test system: NCI-H460 lung
SMILES,TGI (SF-268 CNS),TGI (SNB-19 CNS),TGI (SK-OV-3 ovarian),TGI (RXF 393 renal),TGI (UACC-257 melanoma),TGI (SW-620 colon),TGI (CCRF-CEM leukemia),TGI (SNB-75 CNS),TGI (OVCAR-4 ovarian),TGI (NCI-H460 lung) [µM],GI50 (SK-OV-3 ovarian),GI50 (UACC-257 melanoma),GI50 (SW-620 colon),GI50 (NCI-H460 lung),GI50 (SF-268 CNS) [µM],GI50 (SNB-19 CNS) [µM],GI50 (SNB-75 CNS) [µM]
CN(c1ccccc1Cl)S(=O)(=O)c1ccc([N+](=O)[O-])cc1,> 100 µM,> 100 µM,> 100 µM,> 100 µM,> 100 µM,> 100 µM,> 100 µM,> 100 µM,> 100 µM,> 100,,,,,,,
O=[N+]([O-])c1cc2c(cc1/C=N/n1c(CO)nc3ccccc31)OCO2,> 100 µM,> 100 µM,> 100 µM,> 100 µM,> 100 µM,> 100 µM,> 100 µM,> 100 µM,> 100 µM,> 100,,,,,,,
CC1=NN(c2nc(N)nc(CC#N)n2)C(C)(C)C1,> 100 µM,> 100 µM,> 100 µM,> 100 µM,> 100 µM,> 100 µM,> 100 µM,> 100 µM,> 100 µM,> 100,,,,,,,
CCCCCCCCCCCCCCCC(=O)N(CCCCCCCCCCC(=O)O)CC(O)C(O)C(OC1OC(CO)C(O)C(O)C1O)C(O)CO (stereo not given),48.9 µM,52.9 µM,> 100 µM,> 100 µM,55.7 µM,52.5 µM,45.7 µM,> 100 µM,> 100 µM,> 100,,,,,,,
CC1OC(OC2C(OC(=O)[C@]34CCC(C)(C)C[C@H]3C3=CC[C@@H]5[C@@]6(C)CC[C@H](OC7OC(C(=O)O)C(O)C(OC8OCC(O)C(O)C8O)C7O)C(C)(C)[C@@H]6CC[C@@]5(C)[C@]3(C)CC4)OCC(O)C2O)C(O)C(OC2OCC(O)C(O)C2O)C1OC1OCC(O)C(OC2OCC(O)C(O)C2O)C1O (stereo not given in full),25.5 µM and 54.7 µM,23.2 µM and 44.2 µM,33.7 µM and > 100 µM,37.5 µM and 42.9 µM,20.2 µM and 32.5 µM,29.5 µM and > 100 µM,32.1 µM and 31.4 µM,29.8 µM and 39.3 µM,21.6 µM and 37.6 µM,> 100,15.4 µM and 37.2 µM,7.06 µM and 16.6 µM,13.6 µM and 27.4 µM,49.5 µM and > 100 µM,,,
CCOC(=O)C(Cc1cccn1C(=O)OC(C)(C)C)[N+](=O)[O-] (stereo not given),> 100 µM,75.5 µM,> 100 µM,34.4 µM,59.3 µM,59.2 µM,35.4 µM,54.9 µM,89 µM,53.4,,,,,,,
CC(C)C1=CC23CCC4C(C)(C(=O)O)CCCC4(C)C2CC1C1C(=O)N(c2ccccc2)C(=O)C13 (stereo not given),> 100 µM,> 100 µM,> 100 µM,76.1 µM,84.2 µM,> 100 µM,> 100 µM,> 100 µM,> 100 µM,> 100,,,,,,,
O=C(O)Cc1ccc2[nH]c(O)c(C3=Nc4ccccc4C3=O)c2c1,> 100 µM,> 100 µM,94.8 µM,58.5 µM,> 100 µM,> 100 µM,> 100 µM,> 100 µM,> 100 µM,> 100,,,,,,,
O=[N+]([O-])c1ccc(C=NCC2CCCN3CCCCC23)cc1 (stereo not given),> 100 µM,> 100 µM,> 100 µM,> 100 µM,> 100 µM,> 100 µM,> 100 µM,> 100 µM,> 100 µM,> 100,,,,,,,
CCCCCCCCCCC1OC([C@@H](O)CC[C@H](O)C2CC[C@@H](CCCCCCCC(O)CC3=CC(C)OC3=O)O2)CCC1O (stereo not given in full),> 25 µM,> 25 µM,> 25 µM,> 18.6 µM,> 18.4 µM,> 25 µM,> 25 µM,> 25 µM,> 25 µM,> 25,,2.51 µM,4.37 µM,5.08 µM,23.6,2.9,20.7
Nc1nn2c(nc(N)c3c(N)[nH]nc32)c1N=Nc1ccc(Br)cc1,36.1 µM,> 92.8 µM,> 100 µM,> 100 µM,> 100 µM,> 100 µM,> 100 µM,59.9 µM,> 92.6 µM,> 100,,,,,,,
O=C(O)CC1NCc2cc3ccccc3nc21 (stereo not given),> 100 µM,> 100 µM,> 100 µM,> 100 µM,> 100 µM,> 100 µM,> 100 µM,> 100 µM,> 100 µM,> 100,,,,,,,
Cc1cn([C@@H]2O[C@H](CO[Si](C)(C)C(C)(C)C)[C@]3(O[C@H]3C(=O)NN)[C@H]2O[Si](C)(C)C(C)(C)C)c(=O)[nH]c1=O,12 µM,21.7 µM,36.2 µM,> 25.2 µM,27.6 µM,20 µM,5.43 µM,22.9 µM,22.6 µM,15.6,,,,,,,
COc1cc2c(cc1OC)C1(COc3cc(O)c(O)c(O)c3C1=O)C2 (stereo not given),> 50 µM,> 50 µM,> 50 µM,> 50 µM,> 50 µM,> 50 µM,> 50 µM,> 50 µM,> 50 µM,> 50,,,,,,,
COc1c(O)cc2c(c1O)C(=O)/C(=C/c1ccc(O)cc1)CO2,> 100 µM,> 100 µM,59.3 µM,> 100 µM,> 100 µM,83.4 µM,65.3 µM,57 µM,60.7 µM,> 100,,,,,,,
O=C1OC(=O)c2cc(S(=O)(=O)c3ccc4c(c3)C(=O)OC4=O)ccc21,> 100 µM,> 100 µM,> 100 µM,> 100 µM,> 100 µM,> 100 µM,> 100 µM,> 100 µM,> 100 µM,> 100,,,,,,,
COc1cc2c(=O)cnoc2cc1O,> 100 µM,> 100 µM,> 100 µM,> 100 µM,> 100 µM,> 100 µM,> 100 µM,> 100 µM,> 100 µM,> 100,,,,,,,
